Data from patent publication US11701377B2, “Methods for treating cancers by prodrugs of clofarabine” (priority 2016, dated 2023).

Tests used:
[1] = In Vitro Metabolic Conversion Assay Using Human Plasma; type: in vitro ADME; conditions: incubation with human plasma at 15 µg/mL, 37° C., 60 minutes, HPLC
Protocol: Method F: In Vitro Metabolic Conversion Assay Using Human Plasma. A representative compound (Example 1, Compound 3) was incubated with human plasma at 15 µg/mL. Incubations were carried out at 37° C. in a shaker water bath. Samples were taken at 0, 10, 30 and 60 minutes, quenched with 25 μL of trifluoroacetic acid, and then centrifuged at 25,000 g for 3 minutes at 4° C. The supernatant of each sample was collected and analyzed using HPLC to monitor the formation of clofarabine. FIG. 1 illustrates the results for incubations performed at 37° C.

[2] = test system: human K562 chronic myelogenous leukemia cell line; experiment: In Vitro Anti-proliferative Assay Using Human K562 Leukemia Cell Line; type: cell-based; conditions: K562 cells, 72 hours, 37° C., 5% CO2, triplicates, cell viability
Protocol: Method H: In Vitro Anti-proliferative Assay Using Human K562 Leukemia Cell Line. A representative compound (Example 1, Compound 3) was assessed for its anti-proliferative activity against human K562 chronic myelogenous leukemia cell line at various concentrations ranging from 10 μM to 0.005 μM in triplicates. Incubations were carried out at 37° C., 5% CO2, under humidified atmosphere for 72 hours. After incubation, cell viability was examined.

## CCOC(=O)OC[C@H]1O[C@@H](n2cnc3c(N)nc(Cl)nc32)[C@@H](F)[C@@H]1O [Compound 3, (2R,3R,4S,5R)-5-(6-Amino-2-chloropurin-9-yl)-2-(ethoxycarbonyloxymethyl)-4-fluoro-oxolan-3-ol]
[1]
  metabolic conversion in human plasma (depletion of prodrug, formation of clofarabine): depletion of 3 was observed along with the formation of clofarabine as its metabolite
[2]
  IC50: 324 ± 18 nM
